Values joined by “and” are separate entries in the source; they are usually repeats but may differ in a detail not shown here. Equal entries are not always repeated.
Key:
[1] = test system: RAW264.7 cells; assay: In vitro cytotoxicity assay (MTT); type: cell-based, mouse; details: RAW264.7, MTT
Protocol: MTT assay was used to determine cell viability. RAW264.7 cells in the logarithmic growth phase were cultured in 96-well plates with 6 × 10^3 cells in each well and incubated for 24 h. The surviving cells were then determined by MTT method. […] Cell growth inhibition ratio was calculated as follows: Cellgrowthinhibitionratio%=ODvehicle−ODtreaed/ODvehicle×100%
Cell cytotoxicity CC50 value were conducted by using Nonlinear regression (curve fit) analytic procedure in GraphPad Prism 8.

[2] = test system: sRANKL induced osteoclast differentiation; assay: In vitro anti-osteoclastogenesis activity determination (TRAP staining); type: cell-based, mouse; set-up: key to inhibition of osteoclastogenesis, dose-response (fig. S2a): % inhibition = 100 − (treated−unstimulated)/(untreated−unstimulated)×100; details: for IC50: read-out: OC IC50 (anti-osteoclastogenesis activity); for inhibition of osteoclastogenesis, dose-response (fig. S2a): three replicate columns
Protocol: Mouse osteoclasts were cultured according to the previously reported protocols. BMMs were plated in 96-well plates at a density of 6 × 10^3 cells/well with complete medium containing 10 ng/mL M-CSF. The following day, cells were then stimulated with 100 ng/mL sRANKL in the presence or absence of compounds with different concentrations every 2 days until osteoclasts formed. In order to calculate IC50, we set 9 concentrations for each compound and untreated and non-sRANKL unstimulating group as controls, each with triplicated repeated wells. After 5 days, cells were fixed with 4% paraformaldehyde and then applied TRAP-staining to identify osteoclasts by using the TRAP-staining kit. Osteoclasts number (OC No.) in each well was counted and the percentage of inhibition ratio was calculated as follows:1 OCinhibitoryratio%=100−OCNo.treated−OCNo.unstimulating/OCNo.untreated−OCNo.unstimulating×100%
The dosages and their correspondent osteoclastogenesis inhibitory activity curve and IC50 value were conducted by using Nonlinear regression (curve fit) analytic procedure in GraphPad Prism 8. Photographs of individual wells were taken using Leica microscope.

[3] = BMMs, M-CSF + 100 ng/mL sRANKL, 5 days, TRAP staining

Structure (SMILES)	CC50 [1]	OC IC50 (anti-osteoclastogenesis activity) [2, 3]	IC50 [2, 3]	inhibition of osteoclastogenesis, dose-response (fig. S2a) ([2]; conc. 0.0023464 μM)	inhibition of osteoclastogenesis, dose-response (fig. S2a) ([2]; conc. 0.00774313 μM)	inhibition of osteoclastogenesis, dose-response (fig. S2a) ([2]; conc. 0.0255523 μM)	inhibition of osteoclastogenesis, dose-response (fig. S2a) ([2]; conc. 0.0843226 μM)	inhibition of osteoclastogenesis, dose-response (fig. S2a) ([2]; conc. 0.278265 μM)	inhibition of osteoclastogenesis, dose-response (fig. S2a) ([2]; conc. 0.918274 μM)	inhibition of osteoclastogenesis, dose-response (fig. S2a) ([2]; conc. 3.0303 μM)	inhibition of osteoclastogenesis, dose-response (fig. S2a) ([2]; conc. 10 μM)	inhibition of osteoclastogenesis, dose-response (fig. S2a) ([2]; conc. 33 μM)
CC(=O)C(=NNc1ccccc1C(=O)O)C(=O)N1CCOCC1 [S3-18]	52.6 µM	Inactive										
CCOC(=O)c1sc(NC(=O)C(=NNc2c(C(=O)O)cccc2C(=O)O)C(C)=O)nc1C [S3-19]	77.9 µM		9.49 µM	10.2719 and 4.834 (2×)	5.287 and 4.834 and 5.74	0.7553 and 1.208 and 3.021	5.74 and 4.381 and -1.0574	18.8822 and 16.6163 and 15.2568	19.7885 and 17.0695 and 17.5227	26.1329 and 38.3686 and 35.1964	44.713 (2×) and 40.6344	74.1692 and 70.997 and 80.0604
CC(=O)C(=NNc1ccccc1C(=O)O)C(=O)Nc1nc(C)c(C(=O)N2CCOCC2)s1 [S3-20]	> 100 µM		8.71 µM	-0.2448 and 3.06 and 1.591	8.935 and 4.896 and 2.326	5.263 and 4.529 and 0.8568	5.63 and 2.326 and 1.591	4.529 and 3.06 and 3.794	5.63 and 5.263 (2×)	5.263 and 7.466 and 5.998	58.8739 and 58.1395 and 58.5067	97.4296 and 97.0624 and 96.328
CCOC(=O)c1sc(NC(=O)C(=NNc2ccc(OC)cc2C(=O)O)C(C)=O)nc1C [S3-21]	> 100 µM		0.95 µM	1.224 and -3.182 and 3.06	7.099 and 0.1224 and 2.326	7.099 and 3.427 and 5.998	11.5055 and 14.0759 and 15.9119	35.7405 and 36.4749 and 35.0061	54.8348 and 53.7332 and 55.5692	59.2411 and 62.1787 and 63.2803	74.6634 and 76.8666 and 77.9682	100
CCOC(=O)c1sc(NC(=O)C(=NNc2ccccc2C(=O)O)C(=O)OC(C)C)nc1C [S3-22]	81.2 µM		0.4 µM	1.224 and 0.8568 and 0.4896	0.8568 and 1.958 and 3.427	4.896 and 10.0367 and 5.263	26.1934 and 25.0918 and 21.4198	44.1861 and 41.6157 and 42.7173	58.8739 and 65.1163 and 60.7099	88.2497 and 86.7809 and 89.3513	100	100

Reference: PMC9468151, “Identification of a binding site on soluble RANKL that can be targeted to inhibit soluble RANK-RANKL interactions and treat osteoporosis” (Nature Communications, 2022)
